No end group written: not given here.
Legend:
Type in all cases: cell-based
fibroblasts = assay: Fibroblast chemotaxis in multi-blind well apparatus; conditions: for chemotactic activity of isolated hexapeptides: qualitative; for chemotactic activity in presence of antibody to elastin: polyclonal antibody to elastin present, FIG. 4; for Fibroblast Migration, Net Cells/HPF ± SEM: N = 15
Experimental: (§1) The chemotactic response of fibroblasts to a hexapeptide of the invention was measured using the techniques described in Senior et al, J. Clin. Invest., 70, 614-618 (1982), which is herein incorporated by reference. Although the actual conditions used may vary slightly, the following generally describes the experimental conditions.
(§2) Chemotaxis was determined in a multi-blind well apparatus using a polycarbonate membrane with 8-μm pores on top of a cellulose nitrate membrane having 0.45-μm pores to separate each well into upper and lower compartments. The lower compartment was filled with 240 μl of solution to be assayed (or control medium) and then covered with the membranes. In the upper compartment was placed 350 μl of cell suspension containing 1.2×10^5 cells/ml.
(§3) After both compartments of the wells were filled, the chemotaxis apparatus was placed in a humidified incubator at 37° C. in an atmosphere of 5% CO2 -95% air for several hours. The apparatus was then disassembled, and each membrane pair was removed and stained with hematoxylin. Cell migration was determined under high dry magnification (×400) by counting the cells that had moved to the interface between the two membranes and those on the lower membrane. Several high power fields (H.P.F.) were counted for each membrane. Multiple determinations of each experiment were conducted, and the results pooled. Cell migration is expressed as the net number of cells per H.P.F.; i.e., the number of cells per H.P.F. minus the number of cells per H.P.F. that migrated in response to control medium.

[1] = test system: young fibroblasts (not yet synthesizing elastin); assay: Chemotaxis of young (immature) fibroblasts before and after induced differentiation; conditions: FIG. 2
Experimental: as §1, §2
as §3, with “The apparatus was then disassembled, and each membrane pair was removed and stained with hematoxylin.” left out, “Multiple determinations of each experiment were conducted, and the results pooled.” left out

Monocytes = assay: Desensitization of monocyte chemotaxis by pre-exposure to elastin peptides; conditions: for % CONTROL: desensitized vs control; for Monocyte chemotaxis, CONTROL: no pre-exposure; for Monocyte chemotaxis, CONTROL / Monocyte chemotaxis, DESENSITIZED: mean of 15; for Monocyte chemotaxis, DESENSITIZED: pre-exposed to elastin peptides; for effect of pre-exposure to elastin-derived peptide fragments on monocyte chemotactic response: monocytes pre-exposed to elastin-derived peptide fragments, qualitative
[2] = FIG. 1, dose response of fibroblasts
[3] = chemoattractant at concentration for maximum chemotaxis

Molecule: H-GVAPGV-OH [H--GVAPGV--OH]
- chemotactic activity of isolated hexapeptides (fibroblasts): chemotactic activity is also seen

Molecule: platelet-derived growth factor [PDGF]
- Fibroblast Migration, Positive Control (fibroblasts; PDGF, 10^-9 M): 31 Cells/HPF
- chemotactic activity in presence of antibody to elastin (fibroblasts): has no effect on the chemotactic activity
- migration of young fibroblasts [1]: have the capacity to migrate

Molecule: VGVAPG [VGVAPG, VAL--GLY--VAL--ALA--PRO--GLY]
- % CONTROL (Monocytes; chemoattractant 10^-8 M): 0%
- Monocyte chemotaxis, CONTROL (Monocytes; chemoattractant 10^-8 M): 70 Cells per high power field
- Monocyte chemotaxis, DESENSITIZED (Monocytes; chemoattractant 10^-8 M): -4 Cells per high power field
- % CONTROL (Monocytes; chemoattractant 10^-9 M): 0%
- Monocyte chemotaxis, CONTROL (Monocytes; chemoattractant 10^-9 M): 42 Cells per high power field
- Monocyte chemotaxis, DESENSITIZED (Monocytes; chemoattractant 10^-9 M): -2 Cells per high power field
- effect of pre-exposure to elastin-derived peptide fragments on monocyte chemotactic response (Monocytes): no longer show chemotaxis
- concentration of greatest chemotactic activity (fibroblasts; [2]): 10^-9 M
- concentrations at which chemotactic response was seen (fibroblasts; [2]): higher than 10^-11 M
- nature of fibroblast response (chemotaxis vs random movement) (fibroblasts; Table 1 gradient analysis): chemotaxis and not simply stimulation of random movement
- Fibroblast Migration, Net Cells/HPF ± SEM (fibroblasts; VGVAPG lower compartment 0, upper compartment 10^-8 M): -2 ± 0.5 Net Cells/HPF
- Fibroblast Migration, Net Cells/HPF ± SEM (fibroblasts; VGVAPG lower compartment 0, upper compartment 10^-9 M): 0 ± 0.7 Net Cells/HPF
- Fibroblast Migration, Net Cells/HPF ± SEM (fibroblasts; VGVAPG lower compartment 0, upper compartment 10^-10 M): 1 ± 0.6 Net Cells/HPF
- Fibroblast Migration, Net Cells/HPF ± SEM (fibroblasts; VGVAPG lower compartment 10^-8 M, upper compartment 0): 27 ± 1.7 Net Cells/HPF
- Fibroblast Migration, Net Cells/HPF ± SEM (fibroblasts; VGVAPG lower compartment 10^-8 M, upper compartment 10^-8 M): 1 ± 0.7 Net Cells/HPF
- Fibroblast Migration, Net Cells/HPF ± SEM (fibroblasts; VGVAPG lower compartment 10^-8 M, upper compartment 10^-9 M): 3 ± 0.6 Net Cells/HPF
- Fibroblast Migration, Net Cells/HPF ± SEM (fibroblasts; VGVAPG lower compartment 10^-8 M, upper compartment 10^-10 M): 13 ± 1.8 Net Cells/HPF
- Fibroblast Migration, Net Cells/HPF ± SEM (fibroblasts; VGVAPG lower compartment 10^-9 M, upper compartment 0): 15 ± 1.7 Net Cells/HPF
- Fibroblast Migration, Net Cells/HPF ± SEM (fibroblasts; VGVAPG lower compartment 10^-9 M, upper compartment 10^-8 M): 0 ± 0.6 Net Cells/HPF
- Fibroblast Migration, Net Cells/HPF ± SEM (fibroblasts; VGVAPG lower compartment 10^-9 M, upper compartment 10^-9 M): 0 ± 0.4 Net Cells/HPF
- Fibroblast Migration, Net Cells/HPF ± SEM (fibroblasts; VGVAPG lower compartment 10^-9 M, upper compartment 10^-10 M): 7 ± 1.3 Net Cells/HPF
- Fibroblast Migration, Net Cells/HPF ± SEM (fibroblasts; VGVAPG lower compartment 10^-10 M, upper compartment 0): 4 ± 1.0 Net Cells/HPF
- Fibroblast Migration, Net Cells/HPF ± SEM (fibroblasts; VGVAPG lower compartment 10^-10 M, upper compartment 10^-8 M): 1 ± 1.0 Net Cells/HPF
- Fibroblast Migration, Net Cells/HPF ± SEM (fibroblasts; VGVAPG lower compartment 10^-10 M, upper compartment 10^-9 M): -3 ± 0.4 Net Cells/HPF
- Fibroblast Migration, Net Cells/HPF ± SEM (fibroblasts; VGVAPG lower compartment 10^-10 M, upper compartment 10^-10 M): 2 ± 0.7 Net Cells/HPF
- chemotactic activity of isolated hexapeptides (fibroblasts): most chemotactic of the isolated hexapeptides
- chemotactic activity in presence of antibody to elastin (fibroblasts): blocks the chemotactic activity
- migration of young fibroblasts [1]: do not migrate

Molecule: CSCC[C@H](NC=O)C(=O)N[C@@H](CC(C)C)C(=O)N[C@@H](Cc1ccccc1)C(=O)O [FMLP, formylmethionylleucylphenylalanine, reference compound]
- % CONTROL (Monocytes; chemoattractant 10^-8 M): 77%
- Monocyte chemotaxis, CONTROL (Monocytes; chemoattractant 10^-8 M): 100 Cells per high power field
- Monocyte chemotaxis, DESENSITIZED (Monocytes; chemoattractant 10^-8 M): 77 Cells per high power field
- % CONTROL (Monocytes; chemoattractant 10^-9 M): 100%
- Monocyte chemotaxis, CONTROL (Monocytes; chemoattractant 10^-9 M): 45 Cells per high power field
- Monocyte chemotaxis, DESENSITIZED (Monocytes; chemoattractant 10^-9 M): 45 Cells per high power field
- effect of pre-exposure to elastin-derived peptide fragments on monocyte chemotactic response (Monocytes): pre-exposure has no effect on response

Molecule: H-VAPGVG-OH [H--VAPGVG--OH]
- chemotactic activity of isolated hexapeptides (fibroblasts): chemotactic activity is also seen

Molecule: H-GVGVAP-OH [H--GVGVAP--OH]
- chemotactic activity of isolated hexapeptides (fibroblasts): chemotactic activity is also seen

Molecule: H-APGVGV-OH [H--APGVGV--OH]
- chemotactic activity of isolated hexapeptides (fibroblasts): chemotactic activity is also seen

Molecule: H-PGVGVA-OH [H--PGVGVA--OH]
- chemotactic activity of isolated hexapeptides (fibroblasts): chemotactic activity is also seen

B1: C5A: activity derived from the fifth component of complement (C5a) (protein, UniProt P01031 678-751, looked up)
C5a anaphylatoxin: TLQKKIEEIAAKYKHSVVKKCCYDGACVNNDETCEQRAARISLGPRCIKAFTECCVVASQLRANISHKDMQLGR
modifications: C5a anaphylatoxin
- % CONTROL (Monocytes; [3]): 100%
- Monocyte chemotaxis, CONTROL (Monocytes; [3]): 102 Cells per high power field
- Monocyte chemotaxis, DESENSITIZED (Monocytes; [3]): 102 Cells per high power field
- effect of pre-exposure to elastin-derived peptide fragments on monocyte chemotactic response (Monocytes): pre-exposure has no effect on response

Reference: patent US4605413A, “Stimulation of chemotaxis by chemotactic peptides” (The University of Alabama at Birmingham, priority 1983, dated 1986)
